These results are taken from patent US20220273759A1, “PHARMACEUTICAL ASSOCIATION FOR CONVERTING A NEOPLASTIC CELL INTO A NON-NEOPLASTIC CELL AND USES THEREOF” (HISTIDE AG, priority 2015, published 2022).

The target in the first assay is growth factor receptors. Nature of the assay: cell-based or functional assay.
Settings: not given
With ASAAPSSVPQALSSLSILFF [GFR-binding compound of SEQ ID NO: 67], the p-Smad1/5/8 (%) is 38%.
Molecule YVPKPSSTPTKLSPINMLYF [GFR-binding compound of SEQ ID NO: 66] had a p-Smad1/5/8 (%) of 38%.

The test system of the next assay is human osteosarcoma cells, MG63. The assay can be described thus: Tumor cell recoding via quantification of pRB and p53 (immunofluorescence staining, ImageJ). The format is cell-based. The following applies: Table 4; MG63; quantification of pRB. As for the experimental part:
The cells were first fixed for 20 min with 4% paraformaldehyde/PBS at 4° C. After fixation, the cells were permeabilized in PBS containing 1% Triton X-100 for 15 min. Protein immunofluorescent visualization was performed by first treating the cells with 1% (v/v) specific monoclonal antibodies for 1 hour at 37° C. Then the samples were incubated with Alexa Fluor® 568 or 647 (F(ab′)2 fragment of IgG(H+L)) during 30 min at room temperature. The cell nuclei were counterstained in 20 ng/mL DAPI for 10 min at room temperature.
For this type of quantification the freeware image analysis ImageJ® software was used. The raw image was first converted to an 8-bit file, and then the unsharp mask feature was used (settings 1:0.2) to remove the image background (rolling ball radius 10). After smoothing, the resulting image, which appears similar to the original photomicrograph but with minimal background, was then converted to a binary image by setting a threshold. Threshold values were determined empirically by selecting a setting, which gave the most accurate binary image for a subset of randomly selected photomicrographs. The cell area was determined by manual delineation on raw fluorescent images. Total contact area and mean contact area per cell were calculated by “analyse particules” in ImageJ®. A minimum of 50 cells per condition were analyzed.
Neoplastic cells (in this example osteosarcoma cells) were cultured on pharmaceutical associations comprising PET as a bioactive carrier and one of GFR-binding compounds of SEQ ID NO: 11 to 14, 24 to 26 and 51 to 63. A rapid (24 hours) decrease of the tumor markers was observed (FIG. 7). The adhesion checkpoint then activates the tumor suppressor proteins p53 and pRB. […]
“SIPKASSTPTELSPINMLYF (Non-cyclic GFR-binding peptide) [SEQ ID NO: 64]”: the “pRB (%)” value was determined as 23%.
For “VPTGQSAISMLYL (Non-cyclic GFR-binding peptide) [SEQ ID NO: 95]”, the “pRB (%)” value is 17%.
Consider “TVPKPSSAPTQLRSVKVAKV (Non-cyclic GFR-binding peptide) [SEQ ID NO: 83]”, for which the “pRB (%)” value worked out at 12%.
Same read-out and setting: next, “NDEGLESVPTEERSVKVAKV (Non-cyclic GFR-binding peptide) [SEQ ID NO: 91]”: 12%; “VSQDLRSVKVAKV (Non-cyclic GFR-binding peptide) [SEQ ID NO: 89]”: 17%; “ASASPSSVSQDLEPLTILYY (Non-cyclic GFR-binding peptide) [SEQ ID NO: 78]”: 18%.
On the same count and under the same terms, next, “GIPEPSSVPQKMEPLPIVYY (Non-cyclic GFR-binding peptide) [SEQ ID NO: 75]”: 10%.
Take “YVPKPSSAPTKLNAISVLYF (Non-cyclic GFR-binding peptide) [SEQ ID NO: 99]”: the “pRB (%)” value is listed as 21%.
Regarding “TKPTSTPTKLSPINMLYF (Non-cyclic GFR-binding peptide) [SEQ ID NO: 65]”, the “pRB (%)” value amounted to 10%.
Take “HVPKPSSAPTKLEPISILYL (Non-cyclic GFR-binding peptide) [SEQ ID NO: 100]”: the “pRB (%)” value was found to be 19%.
For the molecule “NDEGLESVPTEESAISMLYL (Non-cyclic GFR-binding peptide) [SEQ ID NO: 96]”, the “pRB (%)” value turned out to be 22%.
“RNVQSRPTQVQLKPLSMLYV (Non-cyclic GFR-binding peptide) [SEQ ID NO: 73]”: the “pRB (%)” value was 16%.
As for “SSVKSQPSRVHHKPLSMLYV (Non-cyclic GFR-binding peptide) [SEQ ID NO: 72]”, the “pRB (%)” value came to 19%.
For “TQVKMRPVQVRKI (Non-cyclic GFR-binding peptide) [SEQ ID NO: 92]”, the “pRB (%)” value was found to be 8%.
Still for that read-out and setting: next, “VVPKPSSAPTQLEPISILYL (Non-cyclic GFR-binding peptide) [SEQ ID NO: 69]”: 20%.
With “ASASPSSVPQDLRSVKVAKV (Non-cyclic GFR-binding peptide) [SEQ ID NO: 90]”, the “pRB (%)” value was determined as 9%.

Still in this assay, the particulars now being: Table 5; MG63; quantification of pRB.
Consider “SIPKASSTPTELSPINMLYF (Non-cyclic GFR-binding peptide) [SEQ ID NO: 64]”, for which the “pRB (%)” value worked out at 23%.
As to “VPTGQSAISMLYL (Non-cyclic GFR-binding peptide) [SEQ ID NO: 95]”, the “pRB (%)” value stood at 17%.
Take “TVPKPSSAPTQLRSVKVAKV (Non-cyclic GFR-binding peptide) [SEQ ID NO: 83]”: the “pRB (%)” value is listed as 12%.
Still for that read-out and setting: then “NDEGLESVPTEERSVKVAKV (Non-cyclic GFR-binding peptide) [SEQ ID NO: 91]”, with 12%.
On to “VSQDLRSVKVAKV (Non-cyclic GFR-binding peptide) [SEQ ID NO: 89]”, for which the “pRB (%)” value is reported as 17%.
Regarding “ASASPSSVSQDLEPLTILYY (Non-cyclic GFR-binding peptide) [SEQ ID NO: 78]”, the “pRB (%)” value is 18%.
Consider “GIPEPSSVPQKMEPLPIVYY (Non-cyclic GFR-binding peptide) [SEQ ID NO: 75]”, for which the “pRB (%)” value was found to be 10%.
Take “YVPKPSSAPTKLNAISVLYF (Non-cyclic GFR-binding peptide) [SEQ ID NO: 99]”: the “pRB (%)” value is on record as 21%.
For the molecule “TKPTSTPTKLSPINMLYF (Non-cyclic GFR-binding peptide) [SEQ ID NO: 65]”, the “pRB (%)” value is reported as 10%.
On to “HVPKPSSAPTKLEPISILYL (Non-cyclic GFR-binding peptide) [SEQ ID NO: 100]”, for which the “pRB (%)” value was found to be 19%.
For “NDEGLESVPTEESAISMLYL (Non-cyclic GFR-binding peptide) [SEQ ID NO: 96]”, the “pRB (%)” value is given as 22%.
On to “RNVQSRPTQVQLKPLSMLYV (Non-cyclic GFR-binding peptide) [SEQ ID NO: 73]”, for which the “pRB (%)” value amounted to 16%.
On the same count and under the same terms, next, “SSVKSQPSRVHHKPLSMLYV (Non-cyclic GFR-binding peptide) [SEQ ID NO: 72]”: 19%.
Same read-out and setting: then “TQVKMRPVQVRKI (Non-cyclic GFR-binding peptide) [SEQ ID NO: 92]”, with 8%.
With “VVPKPSSAPTQLEPISILYL (Non-cyclic GFR-binding peptide) [SEQ ID NO: 69]”, the “pRB (%)” value is listed as 20%.
As to “ASASPSSVPQDLRSVKVAKV (Non-cyclic GFR-binding peptide) [SEQ ID NO: 90]”, the “pRB (%)” value was 9%.

A further assay concerns Smad1/5/8 signaling pathway. Nature of the assay: Growth factor receptor activation: western blot quantification of phospho-smad1/5/8. Type of assay: cell-based. The following applies: Table 4; human osteosarcoma cells MG63; quantification of western blots of phospho-smad1/5/8. As for the experimental part:
After 24 hours of culture, cells were permeabilized (10% SDS, 25 mM NaCl, 10 nM pepstatin and 10 nM leupeptin in distilled water and loading buffer), boiled for 10 minutes and resolved by reducing PAGE (Invitrogen). Proteins were transferred onto nitrocellulose, blocked, and labeled with HRP-conjugated antibodies (Invitrogen). Integrin αv, α5, +3, α4, β1, β3, β5 and […] were blotted by treating the nitrocellulose with monoclonal anti-integrin (extracellular domain) αv, α5, +3, α4, β1, β3, β5 and β6 antibodies (Santa Cruz Biotechnology). Phosphor-Smad1/5/8 was blotted by treating the nitrocellulose with monoclonal anti-p-Smad1/5/8 (Santa Cruz Biotechnology). For all of the experiments the western blot was performed in triplicate, along with an additional blot for actin and coomassie blue staining to ensure constant protein load among samples.
For orientation: Immunoblotting shows a protein as a band on a membrane.
Consider “SIPKASSTPTELSPINMLYF (Non-cyclic GFR-binding peptide) [SEQ ID NO: 64]”, for which the “p-Smad1/5/8 (%)” value stood at 37%.
For the molecule “VPTGQSAISMLYL (Non-cyclic GFR-binding peptide) [SEQ ID NO: 95]”, the “p-Smad1/5/8 (%)” value was 52%.
For “TVPKPSSAPTQLRSVKVAKV (Non-cyclic GFR-binding peptide) [SEQ ID NO: 83]”, the “p-Smad1/5/8 (%)” value came to 35%.
In the case of “NDEGLESVPTEERSVKVAKV (Non-cyclic GFR-binding peptide) [SEQ ID NO: 91]”, the “p-Smad1/5/8 (%)” value came to 55%.
Take “VSQDLRSVKVAKV (Non-cyclic GFR-binding peptide) [SEQ ID NO: 89]”: the “p-Smad1/5/8 (%)” value is 36%.
Still for that read-out and setting: then “ASASPSSVSQDLEPLTILYY (Non-cyclic GFR-binding peptide) [SEQ ID NO: 78]”, with 52%.
For “GIPEPSSVPQKMEPLPIVYY (Non-cyclic GFR-binding peptide) [SEQ ID NO: 75]”, the “p-Smad1/5/8 (%)” value was 51%.
In the case of “YVPKPSSAPTKLNAISVLYF (Non-cyclic GFR-binding peptide) [SEQ ID NO: 99]”, the “p-Smad1/5/8 (%)” value turned out to be 66%.
On to “TKPTSTPTKLSPINMLYF (Non-cyclic GFR-binding peptide) [SEQ ID NO: 65]”, for which the “p-Smad1/5/8 (%)” value is recorded as 36%.
As to “HVPKPSSAPTKLEPISILYL (Non-cyclic GFR-binding peptide) [SEQ ID NO: 100]”, the “p-Smad1/5/8 (%)” value is 75%.
Same read-out and setting: next, “NDEGLESVPTEESAISMLYL (Non-cyclic GFR-binding peptide) [SEQ ID NO: 96]”: 78%.
For the molecule “RNVQSRPTQVQLKPLSMLYV (Non-cyclic GFR-binding peptide) [SEQ ID NO: 73]”, the “p-Smad1/5/8 (%)” value is 48%.
On to “SSVKSQPSRVHHKPLSMLYV (Non-cyclic GFR-binding peptide) [SEQ ID NO: 72]”, for which the “p-Smad1/5/8 (%)” value is listed as 47%.
Take “TQVKMRPVQVRKI (Non-cyclic GFR-binding peptide) [SEQ ID NO: 92]”: the “p-Smad1/5/8 (%)” value amounted to 44%.
Same read-out and setting: next, “VVPKPSSAPTQLEPISILYL (Non-cyclic GFR-binding peptide) [SEQ ID NO: 69]”: 39%; “ASASPSSVPQDLRSVKVAKV (Non-cyclic GFR-binding peptide) [SEQ ID NO: 90]”: 56%.
